Laboratory results as given in ChEMBL document CHEMBL5120754, “Structural modification aimed for improving solubility of lead compounds in early phase drug discovery” (Bioorg Med Chem, 2022).
Converted amounts (≈) assume the structure as drawn.

Columns and labels:
[1] = target: Glutamate receptor ionotropic AMPA (Homo sapiens, UniProt P42261+P42262+P42263+P48058); experiment: Antagonist activity at AMPA receptor (unknown origin); assay type: protein-complex assay
[2] = Antagonist activity at GlyN receptor (unknown origin); design: species or system Homo sapiens
physchem [3] = conditions: buffer
Cannabinoid receptor 2 = Cannabinoid receptor 2 (Homo sapiens, UniProt P34972); experiment: Binding affinity towards human CB2 receptor
[4] = target: Epidermal growth factor receptor (Homo sapiens, UniProt P00533, L858R/T790M)
[5] = target: Histone-lysine N-methyltransferase EZH2 (Homo sapiens, UniProt Q15910, Y641N); experiment: Inhibition of EZH2 Y641N mutant (unknown origin)
[6] = target: Corticotropin-releasing factor receptor 1 (Homo sapiens, UniProt P34998); experiment: Antagonist activity at human CRF1 receptor; assay type: functional
A549 = experiment: Antiproliferative activity against human A549 cells by MTT assay; assay type: functional, cell-based
[7] = Lipophilicity, logD of compound; assay type: physicochemical; conditions: octanol/water
[8] = target: T1, Glucose-dependent insulinotropic receptor (Homo sapiens, UniProt Q8TDV5); experiment: Agonist activity at GPR119 (unknown origin); assay type: functional
T1 sequence (Q8TDV5 whole entry): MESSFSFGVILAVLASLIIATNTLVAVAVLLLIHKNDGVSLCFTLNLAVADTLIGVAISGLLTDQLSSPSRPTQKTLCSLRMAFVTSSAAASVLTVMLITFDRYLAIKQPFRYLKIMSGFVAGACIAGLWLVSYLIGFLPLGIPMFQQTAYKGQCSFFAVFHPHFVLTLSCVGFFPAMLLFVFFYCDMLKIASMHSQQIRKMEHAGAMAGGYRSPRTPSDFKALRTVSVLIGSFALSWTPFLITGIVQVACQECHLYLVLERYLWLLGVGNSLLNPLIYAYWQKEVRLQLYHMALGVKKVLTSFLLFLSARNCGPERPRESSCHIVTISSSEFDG

Hepatitis C virus = experiment: Antiviral activity against HCV GT1b-genotype; assay type: functional, organism-based, Hepacivirus hominis
[9] = buffer
[10] = target: Isocitrate dehydrogenase [NADP] cytoplasmic (Homo sapiens, UniProt O75874, R132H); experiment: Inhibition of IDH1 R132H mutant (unknown origin)
Glutamate NMDA receptor = experiment: Antagonist activity at NMDA receptor in rat cortical wedges assessed as inhibition of NMDA-induced depolarization
[11] = target: Transient receptor potential cation channel subfamily V member 1 (Homo sapiens, UniProt Q8NER1); experiment: Antagonist activity at TRPV1 (unknown origin)
[12] = target: cGMP-specific 3',5'-cyclic phosphodiesterase (Homo sapiens, UniProt O76074); experiment: Inhibition of PDE5 (unknown origin) using FAM-cGMP or FAM-cAMP as substrate incubated for 60 mins and measured by fluorescence polarization assay
[13] = test system: Trypanosoma brucei brucei; experiment: Antitrypanosomal activity against Trypanosoma brucei brucei S427 incubated for 48 hrs by PrestoBlue dye based fluorescence assay; assay type: functional, organism-based; conditions: S427, 48 h
P2Y purinoceptor 12 = P2Y purinoceptor 12 (Homo sapiens, UniProt Q9H244); experiment: Antagonist activity at P2Y12 receptor in human platelet rich plasma; assay type: functional
[14] = target: 3',5'-cyclic-AMP phosphodiesterase 4D (Homo sapiens, UniProt Q08499); experiment: Inhibition of PDE4D (unknown origin)
[15] = target: Bifunctional epoxide hydrolase 2 (Homo sapiens, UniProt P34913); experiment: Inhibition of recombinant human sEH using CMNPC as substrate incubated for 10 mins and measured by fluorescence assay
[16] = test system: Mycobacterium tuberculosis; experiment: microbe, parasite or virus in culture
Staphylococcus aureus = experiment: Antibacterial activity against methicillin-resistant Staphylococcus aureus in in-vivo systemic infection model; assay type: functional
[17] = Permeability of compound in human Caco-2 cells; assay type: ADME, cell-based; conditions: read-out: permeability
[18] = target: Metabotropic glutamate receptor 2 (Homo sapiens, UniProt Q14416); experiment: Positive allosteric modulation of mGlu2 receptor (unknown origin)
physchem [19] = conditions: octanol/water
[20] = target: Tyrosine-protein kinase SYK (Homo sapiens, UniProt P43405); experiment: Inhibition of SYK (unknown origin)

Bifunctional epoxide hydrolase 2, sequence (P34913 whole entry): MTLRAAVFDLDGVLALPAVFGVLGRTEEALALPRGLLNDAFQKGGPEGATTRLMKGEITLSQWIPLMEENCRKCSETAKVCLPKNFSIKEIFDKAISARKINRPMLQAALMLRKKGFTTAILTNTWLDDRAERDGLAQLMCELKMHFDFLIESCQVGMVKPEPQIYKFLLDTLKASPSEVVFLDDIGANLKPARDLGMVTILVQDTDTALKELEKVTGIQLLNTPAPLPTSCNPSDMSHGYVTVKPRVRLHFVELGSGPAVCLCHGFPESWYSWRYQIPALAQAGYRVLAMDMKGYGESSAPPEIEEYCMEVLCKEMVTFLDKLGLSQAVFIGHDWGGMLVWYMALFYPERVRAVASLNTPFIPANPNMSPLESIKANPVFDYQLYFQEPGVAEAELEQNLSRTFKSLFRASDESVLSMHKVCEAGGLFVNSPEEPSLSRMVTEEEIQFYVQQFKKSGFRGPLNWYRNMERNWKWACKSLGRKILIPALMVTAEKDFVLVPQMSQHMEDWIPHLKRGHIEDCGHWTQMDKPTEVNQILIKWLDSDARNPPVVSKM
Epidermal growth factor receptor, sequence (P00533 25-1210 T790M/L858R limits assumed): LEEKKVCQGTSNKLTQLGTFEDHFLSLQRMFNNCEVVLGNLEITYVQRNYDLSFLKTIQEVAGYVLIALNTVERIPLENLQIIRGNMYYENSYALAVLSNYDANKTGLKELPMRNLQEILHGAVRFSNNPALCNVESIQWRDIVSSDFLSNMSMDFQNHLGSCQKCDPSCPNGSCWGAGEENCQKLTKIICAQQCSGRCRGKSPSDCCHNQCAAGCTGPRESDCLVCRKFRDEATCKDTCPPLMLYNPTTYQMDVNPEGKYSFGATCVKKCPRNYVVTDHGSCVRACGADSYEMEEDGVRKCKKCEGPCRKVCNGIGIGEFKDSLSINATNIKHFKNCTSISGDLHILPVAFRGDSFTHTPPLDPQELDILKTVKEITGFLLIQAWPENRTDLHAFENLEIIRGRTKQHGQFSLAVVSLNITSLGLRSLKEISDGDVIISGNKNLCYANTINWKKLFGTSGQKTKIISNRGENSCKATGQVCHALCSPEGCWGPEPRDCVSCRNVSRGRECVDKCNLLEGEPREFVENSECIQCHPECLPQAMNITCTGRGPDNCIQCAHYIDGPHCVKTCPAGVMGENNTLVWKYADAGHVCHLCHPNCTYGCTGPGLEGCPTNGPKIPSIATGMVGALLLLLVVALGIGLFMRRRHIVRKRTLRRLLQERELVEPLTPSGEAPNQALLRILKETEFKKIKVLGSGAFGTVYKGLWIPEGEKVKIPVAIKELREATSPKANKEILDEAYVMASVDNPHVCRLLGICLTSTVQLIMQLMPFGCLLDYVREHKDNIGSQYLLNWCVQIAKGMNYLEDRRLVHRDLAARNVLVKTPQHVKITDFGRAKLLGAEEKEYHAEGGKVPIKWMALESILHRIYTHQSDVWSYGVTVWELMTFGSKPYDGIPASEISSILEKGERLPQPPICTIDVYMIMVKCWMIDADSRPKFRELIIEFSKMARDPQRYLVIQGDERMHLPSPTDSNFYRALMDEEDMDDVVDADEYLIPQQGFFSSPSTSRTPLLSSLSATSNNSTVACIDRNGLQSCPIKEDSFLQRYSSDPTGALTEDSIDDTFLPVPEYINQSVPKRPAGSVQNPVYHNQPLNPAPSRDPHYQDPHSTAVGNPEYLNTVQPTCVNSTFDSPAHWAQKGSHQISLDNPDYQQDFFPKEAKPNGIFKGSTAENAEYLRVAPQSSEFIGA
3',5'-cyclic-AMP phosphodiesterase 4D, sequence (Q08499 whole entry): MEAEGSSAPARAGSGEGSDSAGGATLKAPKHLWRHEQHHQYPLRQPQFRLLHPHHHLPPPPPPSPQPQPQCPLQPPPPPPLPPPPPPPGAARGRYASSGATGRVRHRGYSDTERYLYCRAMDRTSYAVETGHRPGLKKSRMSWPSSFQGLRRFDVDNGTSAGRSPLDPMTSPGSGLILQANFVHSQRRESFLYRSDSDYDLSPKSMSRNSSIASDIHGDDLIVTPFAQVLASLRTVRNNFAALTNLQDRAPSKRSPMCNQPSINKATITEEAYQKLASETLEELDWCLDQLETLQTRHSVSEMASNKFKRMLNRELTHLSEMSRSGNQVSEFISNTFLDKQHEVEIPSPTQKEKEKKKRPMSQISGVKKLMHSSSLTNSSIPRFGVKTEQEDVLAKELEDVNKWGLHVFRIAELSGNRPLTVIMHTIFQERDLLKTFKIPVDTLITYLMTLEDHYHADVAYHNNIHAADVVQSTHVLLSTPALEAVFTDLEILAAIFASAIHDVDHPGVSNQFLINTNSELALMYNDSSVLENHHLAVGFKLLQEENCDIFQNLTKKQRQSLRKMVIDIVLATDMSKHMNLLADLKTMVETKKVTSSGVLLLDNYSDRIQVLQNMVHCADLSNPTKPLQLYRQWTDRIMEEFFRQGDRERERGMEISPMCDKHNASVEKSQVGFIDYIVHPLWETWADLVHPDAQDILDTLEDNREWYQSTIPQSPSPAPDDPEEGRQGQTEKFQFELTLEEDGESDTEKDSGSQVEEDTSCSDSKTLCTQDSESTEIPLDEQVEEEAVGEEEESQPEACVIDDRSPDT
Transient receptor potential cation channel subfamily V member 1, sequence (Q8NER1 whole entry): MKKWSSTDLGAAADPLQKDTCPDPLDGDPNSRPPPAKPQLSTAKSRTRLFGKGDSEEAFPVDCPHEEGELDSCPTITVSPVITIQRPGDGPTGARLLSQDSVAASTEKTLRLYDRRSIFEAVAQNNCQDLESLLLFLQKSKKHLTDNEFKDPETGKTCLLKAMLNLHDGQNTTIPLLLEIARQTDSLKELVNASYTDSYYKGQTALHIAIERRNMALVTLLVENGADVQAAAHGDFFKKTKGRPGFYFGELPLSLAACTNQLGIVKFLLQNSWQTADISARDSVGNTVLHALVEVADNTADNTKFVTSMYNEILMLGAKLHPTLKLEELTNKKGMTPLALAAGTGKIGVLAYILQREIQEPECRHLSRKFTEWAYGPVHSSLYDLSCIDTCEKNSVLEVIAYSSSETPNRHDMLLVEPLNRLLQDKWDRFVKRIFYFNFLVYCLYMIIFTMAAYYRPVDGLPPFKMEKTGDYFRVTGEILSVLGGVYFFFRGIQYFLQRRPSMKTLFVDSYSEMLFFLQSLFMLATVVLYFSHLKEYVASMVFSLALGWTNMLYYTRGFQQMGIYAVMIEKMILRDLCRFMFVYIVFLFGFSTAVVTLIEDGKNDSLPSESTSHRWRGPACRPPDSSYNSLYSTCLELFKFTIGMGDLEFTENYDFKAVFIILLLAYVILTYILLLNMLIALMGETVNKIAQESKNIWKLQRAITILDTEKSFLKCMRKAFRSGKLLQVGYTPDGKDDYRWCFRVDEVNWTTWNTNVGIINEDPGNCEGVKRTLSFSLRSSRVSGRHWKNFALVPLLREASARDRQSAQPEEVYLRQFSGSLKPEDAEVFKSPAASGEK
Cannabinoid receptor 2, sequence (P34972 whole entry): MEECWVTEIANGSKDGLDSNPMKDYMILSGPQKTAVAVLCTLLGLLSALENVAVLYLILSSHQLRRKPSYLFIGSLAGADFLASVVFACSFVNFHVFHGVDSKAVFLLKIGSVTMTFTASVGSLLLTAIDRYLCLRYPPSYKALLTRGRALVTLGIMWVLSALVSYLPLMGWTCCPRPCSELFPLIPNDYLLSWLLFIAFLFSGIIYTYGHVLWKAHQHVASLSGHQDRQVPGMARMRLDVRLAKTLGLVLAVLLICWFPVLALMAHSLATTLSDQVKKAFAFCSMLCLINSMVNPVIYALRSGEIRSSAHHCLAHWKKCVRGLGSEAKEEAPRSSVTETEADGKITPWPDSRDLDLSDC
Metabotropic glutamate receptor 2, sequence (Q14416 whole entry): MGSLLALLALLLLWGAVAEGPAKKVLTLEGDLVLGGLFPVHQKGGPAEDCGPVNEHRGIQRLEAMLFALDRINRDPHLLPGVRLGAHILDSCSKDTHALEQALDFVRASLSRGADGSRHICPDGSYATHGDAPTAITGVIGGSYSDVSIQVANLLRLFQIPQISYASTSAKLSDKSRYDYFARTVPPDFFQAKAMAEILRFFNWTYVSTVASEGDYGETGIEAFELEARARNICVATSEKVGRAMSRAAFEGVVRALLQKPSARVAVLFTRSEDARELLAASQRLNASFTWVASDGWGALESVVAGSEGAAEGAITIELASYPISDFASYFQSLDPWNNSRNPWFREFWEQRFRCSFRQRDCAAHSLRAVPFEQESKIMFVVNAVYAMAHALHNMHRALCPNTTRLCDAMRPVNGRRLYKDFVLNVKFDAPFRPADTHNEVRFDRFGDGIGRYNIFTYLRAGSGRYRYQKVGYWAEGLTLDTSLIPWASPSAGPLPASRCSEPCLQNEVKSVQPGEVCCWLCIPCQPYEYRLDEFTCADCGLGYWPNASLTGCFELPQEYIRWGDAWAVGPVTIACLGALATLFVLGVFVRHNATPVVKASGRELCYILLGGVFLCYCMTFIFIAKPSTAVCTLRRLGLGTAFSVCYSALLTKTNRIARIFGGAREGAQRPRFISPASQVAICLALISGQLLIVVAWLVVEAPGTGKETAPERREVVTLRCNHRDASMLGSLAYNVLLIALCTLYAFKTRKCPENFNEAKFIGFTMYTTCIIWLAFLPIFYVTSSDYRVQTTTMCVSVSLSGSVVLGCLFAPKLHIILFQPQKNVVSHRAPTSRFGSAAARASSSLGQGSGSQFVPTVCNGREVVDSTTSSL
Corticotropin-releasing factor receptor 1, sequence (P34998 whole entry): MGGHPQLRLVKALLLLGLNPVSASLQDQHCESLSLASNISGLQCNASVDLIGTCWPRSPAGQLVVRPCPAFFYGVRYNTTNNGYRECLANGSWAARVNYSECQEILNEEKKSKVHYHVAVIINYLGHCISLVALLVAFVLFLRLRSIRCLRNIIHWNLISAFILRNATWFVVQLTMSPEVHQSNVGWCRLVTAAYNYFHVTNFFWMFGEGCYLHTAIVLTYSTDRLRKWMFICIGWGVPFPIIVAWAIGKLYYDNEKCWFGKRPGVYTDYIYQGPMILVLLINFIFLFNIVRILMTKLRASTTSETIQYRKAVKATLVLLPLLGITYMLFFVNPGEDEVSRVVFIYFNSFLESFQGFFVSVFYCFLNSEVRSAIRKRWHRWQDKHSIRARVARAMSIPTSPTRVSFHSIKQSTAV

With CCOC(=O)CN(C)Cc1c(CC)c([N+](=O)[O-])cc2nc(O)c(O)nc12 the IC50 [1] was 140 nM, the IC50 [2] was 470 nM and the solubility thermodynamic (physchem [3]) was 150 µg/mL.

Work on CCCCCn1c(=O)c(C(=O)NC23CC4CC(CC(C4)C2)C3)c(O)c2ccc(F)cc21 yielded a Ki (Cannabinoid receptor 2) of 0.8 nM and a solubility thermodynamic (physchem [3]) of 1.5 µg/mL.

In the case of C=CC(=O)N1CCC(N2C(=O)N(c3ccccc3)Cc3cnc(Nc4ccc(N5CCN(C)CC5)c(C)c4)nc32)C1 (stereo not drawn), the IC50 [4] is reported as 9.2 nM.

With COc1cc(C)[nH]c(=O)c1CN1CCc2c(Cl)cc([C@H](OC)C3COC3)c(Cl)c2C1=O [MEVROMETOSTAT] the Ki [5] was under 0.1 nM.

With CCCN(CC1CC1)c1cc(C)nc2c(-c3ccc(Cl)cc3Cl)c(C)nn12 the IC50 [6] was 76 nM.

With CC[C@]1(OC(=O)CNC(=O)CCC(=O)O)C(=O)OCc2c1ccn(Cc1cnc3ccc4c(c3c1)C(=O)NC(C(C)C)O4)c2=O (stereo partly drawn) the IC50 (A549) was 6470 nM and the solubility thermodynamic (physchem [3]) was 3400 µg/mL.

In the case of CC(C)c1nc(N2CCN(c3ncc(OCc4ccncc4C#N)cn3)CC2)no1, the logD [7] is reported as 3.3, the EC50 [8] is reported as 6 nM and the solubility thermodynamic (physchem [3]) is reported as 6 µM.

COc1c(/C=C/c2ccc(NS(C)(=O)=O)cc2)cc(N2CCC(=O)NC2=O)cc1C(C)(C)C gave an EC50 (Hepatitis C virus) of 0.3 nM and a Therm_solubility [9] of 20700 µg/mL.

COc1nc(N[C@@H](C)c2cc3cc(Cl)ccc3[nH]c2=O)ncc1C#N gave an IC50 [10] of 81.4 nM and a solubility thermodynamic (physchem [3]) of 10.5 µM.

For CCC(c1c(Cl)c(Cl)cc2nc(O)c(O)nc12)n1cncn1 (stereo not drawn), the IC50 (Glutamate NMDA receptor) was 4.4 nM and the solubility thermodynamic (physchem [3]) was 10 µg/mL.

With CC(=O)Nc1nc2c(Oc3cc(C4=CCC(C(F)(F)F)CC4)ncn3)cccc2s1 (stereo not drawn) the IC50 [11] was 27 nM and the solubility thermodynamic (physchem [3]) was 13 µg/mL.

Molecule COc1ccc(CNc2c(CO)cnc3c(C4CC4)cc(C#N)cc23)cc1Cl has an IC50 [12] of 0.37 nM and a solubility thermodynamic (physchem [3]) of 3.9 µM.

CN1CCCN(c2ncc(-c3ccc4c(Nc5cnccn5)ccnc4c3)cn2)CC1 showed an EC50 [13] of 13 nM.

With CCOC(=O)c1cc(C#N)c(N2CCC(C(=O)NS(=O)(=O)Cc3ccccc3)CC2)nc1C the IC50 (P2Y purinoceptor 12) was 3600 nM and the solubility thermodynamic (physchem [3]) was 2.99 µM.

With O=C(O)C1CCC(c2cc3cccnc3c(-c3cccc(F)c3)n2)CC1 (stereo not drawn) the IC50 [14] was 32 nM and the solubility thermodynamic (physchem [3]) was 920 µg/mL.

With O=C(NC1=CC=CC1)NC12CC3CC(CC(C3)C1)C2 the IC50 [15] was 0.4 nM, the solubility thermodynamic (physchem [3]) was 0.1 µg/mL and the MIC [16] was 0.01 µg/mL (≈ 0.0387 µM).

For CC(=O)NC[C@H]1CN(c2ccc(N3CCOCC3)c(F)c2)C(=O)O1 [LINEZOLID], the ED50 (Staphylococcus aureus) was 5 mg/kg.

In the case of Fc1ccc(C2CCC(c3ccn4c(CC5CC5)nnc4c3C(F)(F)F)CC2)c(F)c1 (stereo not drawn), the Papp [17] is reported as 22 ×10⁻⁶ cm/s, the EC50 [18] is reported as 78 nM and the solubility thermodynamic (physchem [3]) is reported as 50 µg/mL. The logP (physchem [19]) was 4.2.

For CC(C)N1C[C@H]2C[C@@H]1CN2c1ccc(Nc2nc(-c3ccc4cn[nH]c4c3)cn3ccnc23)cc1, the IC50 [20] was 80 nM and the solubility thermodynamic (physchem [3]) was 0.216 µg/mL.
